Experimental data taken from ChEMBL document CHEMBL5726546, “Dihydroquinoline pyrazolyl compounds” (2017).

Experiments:
[1] = molecular target: T1, Cytochrome P450 11B1, mitochondrial (Homo sapiens, UniProt P15538); assay: (§1) Inhibition Assay: The expression plasmids contains the ORF for either human/cyno CYP11B1 or CYP11B2 under the control of a suitable promoter (CMV-promoter) and a suitable resistance marker (neomycin). Using standard techniques the expression plasmid is transfected into G-402 cells and these cells are then selected for expressing the given resistance markers. Individual cell-clones are then selected and assessed for displaying the desired enzymatic activity using 11-Deoxycorticosterone (Cyp11B2) or 11-Deoxycortisol (Cyp11B1) as a substrate.G-402 cells expressing CYP11 constructs were established as described above and maintained in McCoy's 5a Medium Modified, ATCC Catalog No. 30-2007 containing 10% FCS and 400 μg/ml G418 (Geneticin) at 37° C. under an atmosphere of 5% CO2/95% air. Cellular enzyme assays were performed in DMEM/F12 medium containing 2.5% charcoal treated FCS and appropriate concentration of substrate (0.3-10 uM 11-Deoxycorticosterone, 11-Deoxycortisol or Corticosterone). For assaying enzymatic activity, cells were plated onto 96 well plates and incubated for 16 h. An aliquot of the supernatant is then transferred and analyzed for the concentration of the expected product (Aldosterone for CYP11B2; Cortisol for CYP11B1). The concentrations of these steroids can be determined using HTRF assays from CisBio analyzing either Aldosterone or Cortisol.
T1 sequence (P15538 whole entry): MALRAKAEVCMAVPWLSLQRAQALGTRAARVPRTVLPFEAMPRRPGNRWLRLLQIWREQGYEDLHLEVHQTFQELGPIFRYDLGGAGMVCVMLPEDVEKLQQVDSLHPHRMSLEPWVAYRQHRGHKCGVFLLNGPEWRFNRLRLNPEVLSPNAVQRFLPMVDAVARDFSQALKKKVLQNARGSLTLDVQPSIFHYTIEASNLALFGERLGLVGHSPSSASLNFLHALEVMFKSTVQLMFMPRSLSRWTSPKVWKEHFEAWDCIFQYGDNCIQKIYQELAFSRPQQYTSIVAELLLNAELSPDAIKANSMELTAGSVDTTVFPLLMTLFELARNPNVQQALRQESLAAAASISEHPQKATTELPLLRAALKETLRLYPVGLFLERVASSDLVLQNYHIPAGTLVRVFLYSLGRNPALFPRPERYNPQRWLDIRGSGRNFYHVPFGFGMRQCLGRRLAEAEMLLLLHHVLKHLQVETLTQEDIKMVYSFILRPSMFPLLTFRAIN

[2] = molecular target: T2, Cytochrome P450 11B2, mitochondrial (Homo sapiens, UniProt P19099); assay: as §1
T2 sequence (P19099 whole entry): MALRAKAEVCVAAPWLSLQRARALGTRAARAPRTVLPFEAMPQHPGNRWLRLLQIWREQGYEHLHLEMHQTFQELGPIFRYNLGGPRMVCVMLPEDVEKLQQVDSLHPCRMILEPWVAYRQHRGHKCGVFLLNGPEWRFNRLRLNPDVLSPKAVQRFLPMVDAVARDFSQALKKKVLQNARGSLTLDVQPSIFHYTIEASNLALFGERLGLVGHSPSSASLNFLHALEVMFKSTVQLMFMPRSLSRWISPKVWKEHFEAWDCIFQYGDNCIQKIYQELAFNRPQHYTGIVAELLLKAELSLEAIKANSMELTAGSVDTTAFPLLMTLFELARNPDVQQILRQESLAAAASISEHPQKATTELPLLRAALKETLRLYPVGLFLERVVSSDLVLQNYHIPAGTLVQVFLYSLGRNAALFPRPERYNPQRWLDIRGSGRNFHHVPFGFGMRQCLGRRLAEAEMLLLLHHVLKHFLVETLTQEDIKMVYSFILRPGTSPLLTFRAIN

Compound	EC50 [1]	EC50 [2]
CN1C(=O)CCc2c1ccc(-c1n[nH]cc1CC1CCN(C(=O)c3ccnn3C)CC1)c2F	0.076 nM	–
CN1C(=O)CCc2c1ccc(-c1n[nH]cc1CC1CCN(S(=O)(=O)c3ccnn3C)CC1)c2F	0.704 nM	0.014 nM
CC(=O)N1CCC(C(C)c2c[nH]nc2-c2ccc3c(c2F)CCC(=O)N3C)CC1 (racemic)	0.049 nM	–
CC(=O)N1CCC(C(C)c2c[nH]nc2-c2cc3c(cc2F)N(C)C(=O)CC3)CC1 (racemic)	0.067 nM	–
CC(=O)N1CCC([C@@H](C)c2c[nH]nc2-c2ccc3c(c2F)CCC(=O)N3C)CC1 (single isomer, unassigned)	0.074 nM	0.012 nM
CC(=O)N1CCC([C@H](C)c2c[nH]nc2-c2ccc3c(c2F)CCC(=O)N3C)CC1 (single isomer, unassigned)	–	0.064 nM
